Reference: patent US20110152332A1, “Pesticidal Heterocyclic Compounds” (Bayer CropScience AG, priority 2009, published 2011)

Columns and labels:
Format in all cases: in vivo
[1] = test system: Two-spotted spider mite (Tetranychus urticae); test: Test against two-spotted spider mite (Tetranychus urticae), spray; details: active compound concentration 100 ppm; adult mites on kidney bean, sprayed; after 7 days
Procedure: (§1) Unless described otherwise, the test solutions were prepared as follows:
(§2) The active compound, 1 part by weight of the active compound was admixed with the solvent in the above described amount which contains the emulsifying agent in the above described amount. The mixture was then diluted with water to specific concentration.
(§3) In order to prepare the test solution containing the active compound, 1 part by weight of the active compound was admixed with 3 parts by weight of the solvent dimethyl formamide which contains 1 part by weight of the emulsifying agent polyoxyethylene alkylphenyl ether. This mixture is then diluted with water to the specific concentration.
(§4) Solvent: dimethyl formamide, 3 parts by weight; emulsifying agent: polyoxyethylene alkylphenyl ether, 1 part by weight
50 to 100 adult mites of Tetranychus urticae were inoculated to leaves of kidney bean at two-leaf stage planted in a pot of 6 cm in diameter. After one day, test solution at the appropriate concentration was sprayed thereon in a sufficient amount using a spray gun. After the spraying, the plant pot was placed inside a greenhouse, and after 7 days, the acaricidal activity was calculated. An acaricidal activity of 100% means that all mites were killed, whereas an acaricidal activity of 0% means that no mite was killed.

[2] = test system: Tobacco cutworm (Spodoptera litura) larvae; test: Test against tobacco cutworm (Spodoptera litura) larvae, leaf dip; details: active compound concentration 100 ppm; third instar larvae on dipped sweet potato leaves; after 7 days
Procedure: as §1, §2, §3, §4
Leaves of sweet potato were immersed in the test solution at the appropriate concentration, and the leaves were dried in air. The leaves were then placed in a petri dish having a diameter of 9 cm, and ten Spodoptera litura at third instar larvae were released therein. The petri dishes were placed in a temperature-controlled chamber at 25° C. After 2 days and 4 days more sweet potato leaves were added. After 7 days, the number of dead larvae was counted to calculate the insecticidal activity. An insecticidal activity of 100% means that all larvae were killed, whereas an insecticidal activity of 0% means that no larva was killed. In the current test, the results of two petri dishes for each treatment were averaged.

[3] = test system: Ctenocephalides felis; test: Ctenocephalides felis-test (CTECFE); details: application rate 100 ppm in cattle blood; adult unfed fleas; after 2 days
Procedure: (§5) Solvent: dimethyl sulfoxide
To produce a suitable preparation of active compound, 10 mg of active compound are dissolved in 0.5 ml solvent, and the concentrate is diluted with cattle blood to the desired concentration. Approximately 20 adult unfed (Ctenocephalides felis) are placed in flea chambers. The blood chamber, sealed with parafilm on the bottom, are filled with cattle blood supplied with compound solution and placed on top of the flea chamber, so that the fleas are able to suck the blood. The blood chamber is heated to 37° C. whereas the flea chamber is kept at room temperature. After 2 days mortality in % is determined. 100% means that all the fleas have been killed; 0% means that none of the fleas have been killed.

[4] = test system: Boophilus microplus; test: Boophilus microplus (dip); details: application rate 100 ppm; adult engorged female ticks dipped one minute; after 7 days
Procedure: Solvent: dimethylsulfoxid
To produce a suitable preparation of active compound, 10 mg of active compound are dissolved in 0.5 ml solvent, and the concentrate is diluted with water to the desired concentration. Eight to ten adult engorged female Boophilus microplus ticks are placed in perforated plastic beakers and immersed in aqueous compound solution for one minute. Ticks are transferred to a filter paper in a plastic tray. Egg deposition of fertile eggs is monitored after. After 7 days mortality in % is determined. 100% means that all the ticks have been killed; 0% means that none of the ticks have been killed.

[5] = test system: Cucurbit leaf beetle (Aulacophora femoralis); test: Test against cucurbit leaf beetle (Aulacophora femoralis), leaf dip; details: active compound concentration 100 ppm; second instar larvae on dipped cucumber leaves; after 7 days
Procedure: as §1, §2, §3, §4
Leaves of cucumber were immersed in the test solution at the appropriate concentration, and the leaves were dried in air. The leaves were then put in a plastic cup containing sterilized black soil and five Aulacophora femoralis at second instar larvae were released in the cup. The cups were placed in a temperature-controlled chamber at 25° C. After 7 days, the number of dead larvae was counted, and thus the insecticidal activity was calculated. An insecticidal activity of 100% means that all larvae were killed, whereas an insecticidal activity of 0% means that no larva was killed.

[6] = test system: Musca domestica; test: Musca domestica-test; details: application rate 100 ppm; adults, sugar/compound soaked sponge; after 2 days
Procedure: as §5
To produce a suitable preparation of active compound, 10 mg of active compound are dissolved in 0.5 ml solvent, and the concentrate is diluted with water to the desired concentration. Prior to the assay, a piece of kitchen sponge is soaked with a mixture of sugar and compound solution and placed into a container. 10 adults (Musca domestica) are placed into the container and closed with a perforated lid. After 2 days mortality in % is determined. 100% means that all the flies have been killed; 0% means that none of the flies have been killed.

SMILES	acaricidal activity [1]	insecticidal activity [2]	activity (mortality in %) [3]	activity (mortality in %) [4]	insecticidal activity [5]	activity (mortality in %) [6]
CCC(=O)NC(C)c1ccc(N2CC(c3cc(Cl)c(Cl)c(Cl)c3)(C(F)(F)F)OC2=O)cc1 (racemic) [Compound 1-371, N-(1-{4-[2-oxo-5-(3,4,5-trichlorophenyl)-5-(trifluoromethyl)-1,3-oxazolidin-3-yl]phenyl}ethyl)propanamide]	100%	100%				
CC(=O)NCc1ccc(N2CC(c3cc(Cl)cc(Cl)c3)(C(F)(F)F)OC2=O)cc1C(F)(F)F (centres unmarked) [Compound 1-2]		100%	95%	80%	100%	
O=C(CC(F)(F)F)NCc1ccc(N2CC(c3cc(Cl)cc(Cl)c3)(C(F)(F)F)OC2=O)cc1C(F)(F)F (centres unmarked) [Compound 1-7]	100%	100%	95%		100%	
O=C(CC(F)(F)F)NCc1ccc(N2CC(c3cc(Cl)c(Cl)c(Cl)c3)(C(F)(F)F)OC2=O)cc1C(F)(F)F (centres unmarked) [Compound 1-21]	100%	100%			100%	
COCCC(=O)NCc1ccc(N2CC(c3cc(Cl)c(Cl)c(Cl)c3)(C(F)(F)F)OC2=O)cc1C(F)(F)F (centres unmarked) [Compound 1-25]	100%	100%				
CCC(=O)NCc1ccc(N2CC(c3cc(Cl)c(Cl)c(Cl)c3)(C(F)(F)F)OC2=O)cc1Cl (centres unmarked) [Compound 1-31]	100%	100%			100%	
CCC(=O)NCc1ccc(N2CC(c3cc(Cl)c(Cl)c(Cl)c3)(C(F)(F)F)OC2=O)cc1 (centres unmarked) [Compound 1-59]		100%	95%		100%	
CCC(=O)NCc1ccc(N2CC(c3cccc(C(F)(F)F)c3)(C(F)(F)F)OC2=O)cc1C(F)(F)F (centres unmarked) [Compound 1-73]		100%			100%	80%
O=C(NCc1ccc(N2CC(c3cccc(C(F)(F)F)c3)(C(F)(F)F)OC2=O)cc1C(F)(F)F)C1CC1 (centres unmarked) [Compound 1-75]	100%	100%			100%	
O=C(CC1CC1)NCc1ccc(N2CC(c3cccc(C(F)(F)F)c3)(C(F)(F)F)OC2=O)cc1C(F)(F)F (centres unmarked) [Compound 1-76]	100%	100%			100%	
CCC(=O)NCc1ccc(N2CC(c3cc(C(F)(F)F)cc(C(F)(F)F)c3)(C(F)(F)F)OC2=O)cc1C(F)(F)F (centres unmarked) [Compound 1-129]	100%	100%			100%	
O=C(CC(F)(F)F)NCc1ccc(N2CC(c3cc(C(F)(F)F)cc(C(F)(F)F)c3)(C(F)(F)F)OC2=O)cc1C(F)(F)F (centres unmarked) [Compound 1-133]	100%	100%			100%	
CSCC(=O)NCc1ccc(N2CC(c3cc(C(F)(F)F)cc(C(F)(F)F)c3)(C(F)(F)F)OC2=O)cc1C(F)(F)F (centres unmarked) [Compound 1-134]	100%	100%			100%	
CS(=O)(=O)CC(=O)NCc1ccc(N2CC(c3cc(C(F)(F)F)cc(C(F)(F)F)c3)(C(F)(F)F)OC2=O)cc1C(F)(F)F (centres unmarked) [Compound 1-136]	100%	100%			100%	
COCCC(=O)NCc1ccc(N2CC(c3cc(C(F)(F)F)cc(C(F)(F)F)c3)(C(F)(F)F)OC2=O)cc1C(F)(F)F (centres unmarked) [Compound 1-137]	100%				100%	
O=C(NCc1ccc(N2CC(c3cc(C(F)(F)F)cc(C(F)(F)F)c3)(C(F)(F)F)OC2=O)cc1Cl)C1CC1 (centres unmarked) [Compound 1-145]	100%	100%	95%		100%	80%
O=C(CC(F)(F)F)NCc1ccc(N2CC(c3cc(C(F)(F)F)cc(C(F)(F)F)c3)(C(F)(F)F)OC2=O)cc1Cl (centres unmarked) [Compound 1-147]	100%	100%	95%		100%	
CCC(=O)NCc1ccc(N2CC(c3cc(C(F)(F)F)cc(C(F)(F)F)c3)(C(F)(F)F)OC2=O)cc1C (centres unmarked) [Compound 1-157]		100%			100%	
Cc1cc(N2CC(c3cc(C(F)(F)F)cc(C(F)(F)F)c3)(C(F)(F)F)OC2=O)ccc1CNC(=O)C1CC1 (centres unmarked) [Compound 1-159]		100%	95%		100%	90%
Cc1cc(N2CC(c3cc(C(F)(F)F)cc(C(F)(F)F)c3)(C(F)(F)F)OC2=O)ccc1CNC(=O)CC(F)(F)F (centres unmarked) [Compound 1-161]		100%	80%		100%	
Cc1cc(N2CC(c3cc(C(F)(F)F)cc(C(F)(F)F)c3)(C(F)(F)F)OC2=O)ccc1CNC(=O)C[S+](C)[O-] (centres unmarked) [Compound 1-163]			80%			
COCCC(=O)NCc1ccc(N2CC(c3cc(C(F)(F)F)cc(C(F)(F)F)c3)(C(F)(F)F)OC2=O)cc1C (centres unmarked) [Compound 1-165]		100%			100%	
C[C@H](NC(=O)C1CC1)c1ccc(N2CC(c3cc(Cl)cc(Cl)c3)(C(F)(F)F)OC2=O)cc1 (some centres unmarked) [Compound 1-345-a]	100%	100%				
CC(=O)NC(C)c1ccc(N2CC(c3cc(Cl)c(Cl)c(Cl)c3)(C(F)(F)F)OC2=O)cc1 (centres unmarked) [Compound 1-370]		100%			100%	
C[C@H](NC(=O)C1CC1)c1ccc(N2CC(c3cc(Cl)c(Cl)c(Cl)c3)(C(F)(F)F)OC2=O)cc1 (some centres unmarked) [Compound 1-373-a]	100%	100%			100%	
CC(NC(=O)C1CC1)c1ccc(N2CC(c3cc(Cl)c(Cl)c(Cl)c3)(C(F)(F)F)OC2=O)cc1 (centres unmarked) [Compound 1-373]	100%	100%				
CCC(=O)NC1CCc2cc(N3CC(c4cc(Cl)c(Cl)c(Cl)c4)(C(F)(F)F)OC3=O)ccc21 (centres unmarked) [Compound 4-31]	100%	100%			100%	
O=C(NC1CCc2cc(N3CC(c4cc(Cl)c(Cl)c(Cl)c4)(C(F)(F)F)OC3=O)ccc21)C1CC1 (centres unmarked) [Compound 4-33]	100%	100%			100%	
O=C(CC1CC1)NC1CCc2cc(N3CC(c4cc(Cl)c(Cl)c(Cl)c4)(C(F)(F)F)OC3=O)ccc21 (centres unmarked) [Compound 4-34]	100%	100%			100%	
O=C(CC(F)(F)F)NC1CCc2cc(N3CC(c4cc(Cl)c(Cl)c(Cl)c4)(C(F)(F)F)OC3=O)ccc21 (centres unmarked) [Compound 4-35]	100%	100%			100%	
